Test results: ChEMBL document CHEMBL5303573, “Mapping human microbiome drug metabolism by gut bacteria and their genes” (Nature, 2019)
Non-standard residues stand in square brackets, D forms with d. Residues, ends and D or L forms follow the SMILES beside them. pGlu = O=C1CC[C@@H](C(=O)O)N1; Thz = O=C(O)[C@@H]1CSCN1

Columns and labels:
[1] = The drug is tested on Bifidobacterium ruminantium strain: fecal isolate for biotransformation. The drug concentrations were measured before and after a 12-h incubation by liquid-chromatography-coupled mass spectrometry (LC–MS); details: 2 µM
[2] = The drug is tested on Bacteroides cellulosilyticus strain: DSM14838 for biotransformation. The drug concentrations were measured before and after a 12-h incubation by liquid-chromatography-coupled mass spectrometry (LC–MS); details: 2 µM
[3] = The drug is tested on Bacteroides ovatus strain: ATCC8483 for biotransformation. The drug concentrations were measured before and after a 12-h incubation by liquid-chromatography-coupled mass spectrometry (LC–MS); details: 2 µM
[4] = The drug is tested on Bacteroides sp. WH2 strain: WH2 for biotransformation. The drug concentrations were measured before and after a 12-h incubation by liquid-chromatography-coupled mass spectrometry (LC–MS); details: bacteroides sp. wh2, 12 h, 2 µM
[5] = The drug is tested on Bacteroides xylanisolvens strain: DSM18836 for biotransformation. The drug concentrations were measured before and after a 12-h incubation by liquid-chromatography-coupled mass spectrometry (LC–MS); details: 2 µM
[6] = The drug is tested on Blautia luti strain: DSM14534 for biotransformation. The drug concentrations were measured before and after a 12-h incubation by liquid-chromatography-coupled mass spectrometry (LC–MS); assay type: ADME; design: dose 2 uM, timepoint 0 vs 12 hours; details: 2 µM
[7] = The drug is tested on Clostridium symbiosum strain: ATCC14940 for biotransformation. The drug concentrations were measured before and after a 12-h incubation by liquid-chromatography-coupled mass spectrometry (LC–MS); details: 2 µM
[8] = The drug is tested on Coprococcus comes strain: ATCC27758 for biotransformation. The drug concentrations were measured before and after a 12-h incubation by liquid-chromatography-coupled mass spectrometry (LC–MS); assay type: ADME; design: dose 2 uM, timepoint 0 vs 12 hours; details: 2 µM
[9] = The drug is tested on Dorea formicigenerans strain: ATCC27755 for biotransformation. The drug concentrations were measured before and after a 12-h incubation by liquid-chromatography-coupled mass spectrometry (LC–MS); details: 2 µM
[10] = The drug is tested on Eubacterium ventriosum strain: ATCC27560 for biotransformation. The drug concentrations were measured before and after a 12-h incubation by liquid-chromatography-coupled mass spectrometry (LC–MS); assay type: ADME; design: dose 2 uM, timepoint 0 vs 12 hours; details: 2 µM
[11] = The drug is tested on Ruminococcus gnavus strain: ATCC29149 for biotransformation. The drug concentrations were measured before and after a 12-h incubation by liquid-chromatography-coupled mass spectrometry (LC–MS); details: mediterraneibacter gnavus, 2 µM
[12] = The drug is tested on Subdoligranulum variabile strain: DSM15176 for biotransformation. The drug concentrations were measured before and after a 12-h incubation by liquid-chromatography-coupled mass spectrometry (LC–MS); details: 2 µM
[13] = The drug is tested on Enterobacter cancerogenus strain: ATCC35316 for biotransformation. The drug concentrations were measured before and after a 12-h incubation by liquid-chromatography-coupled mass spectrometry (LC–MS); details: 2 µM
[14] = The drug is tested on Providencia stuartii strain: ATCC25827 for biotransformation. The drug concentrations were measured before and after a 12-h incubation by liquid-chromatography-coupled mass spectrometry (LC–MS); details: 2 µM
[15] = bifidobacterium adolescentis, 12 h, 2 µM
Description: The drug is tested on Bifidobacterium adolescentis strain: ATCC 15703 for biotransformation. The drug concentrations were measured before and after a 12-h incubation by liquid-chromatography-coupled mass spectrometry (LC–MS)

[16] = bacteroides intestinalis, 12 h, 2 µM
Description: The drug is tested on Bacteroides intestinalis strain: DSM17393 for biotransformation. The drug concentrations were measured before and after a 12-h incubation by liquid-chromatography-coupled mass spectrometry (LC–MS)

[17] = segatella copri, 12 h, 2 µM
Description: The drug is tested on Prevotella copri strain: DSM18205 for biotransformation. The drug concentrations were measured before and after a 12-h incubation by liquid-chromatography-coupled mass spectrometry (LC–MS)

[18] = enterocloster bolteae, 12 h, 2 µM
Description: The drug is tested on Clostridium bolteae strain: ATCCBAA-613 for biotransformation. The drug concentrations were measured before and after a 12-h incubation by liquid-chromatography-coupled mass spectrometry (LC–MS)

[19] = limosilactobacillus reuteri cf48-3a, 12 h, 2 µM
Description: The drug is tested on Lactobacillus reuteri CF48-3A strain: BEI HM-102 for biotransformation. The drug concentrations were measured before and after a 12-h incubation by liquid-chromatography-coupled mass spectrometry (LC–MS)

[20] = The drug is tested on Eubacterium rectale strain: ATCC33656 for biotransformation. The drug concentrations were measured before and after a 12-h incubation by liquid-chromatography-coupled mass spectrometry (LC–MS); details: agathobacter rectalis, 2 µM

Bacterial Biotransformation [1]	Bacterial Biotransformation [2]	Bacterial Biotransformation [3]	Bacterial Biotransformation [4]	Bacterial Biotransformation [5]	Bacterial Biotransformation [6]	Bacterial Biotransformation [7]	Bacterial Biotransformation [8]	Bacterial Biotransformation [9]	Bacterial Biotransformation [10]	Bacterial Biotransformation [11]	Bacterial Biotransformation [12]	Bacterial Biotransformation [13]	Bacterial Biotransformation [14]	Bacterial Biotransformation [15]	Bacterial Biotransformation [16]	Bacterial Biotransformation [17]	Bacterial Biotransformation [18]	Bacterial Biotransformation [19]	Bacterial Biotransformation [20]	Structure (SMILES)
Compound NOT metabolized	Compound NOT metabolized	Compound NOT metabolized	Compound NOT metabolized	Compound NOT metabolized	Compound NOT metabolized	Compound NOT metabolized	Compound NOT metabolized	Compound NOT metabolized	Compound NOT metabolized	Compound NOT metabolized	Compound NOT metabolized	Compound NOT metabolized	Compound NOT metabolized	Compound NOT metabolized	Compound NOT metabolized	Compound NOT metabolized	Compound NOT metabolized	Compound NOT metabolized	–	CC1=C(CC(=O)O)c2cc(F)ccc2/C1=C\c1ccc([S+](C)[O-])cc1 (stereo not drawn)
Compound NOT metabolized	Compound NOT metabolized	Compound metabolized	Compound NOT metabolized	–	Compound NOT metabolized	Compound NOT metabolized	Compound NOT metabolized	Compound NOT metabolized	Compound NOT metabolized	Compound NOT metabolized	Compound NOT metabolized	Compound NOT metabolized	Compound NOT metabolized	Compound NOT metabolized	Compound NOT metabolized	Compound metabolized	Compound NOT metabolized	–	Compound NOT metabolized	O=C1CC[C@@H](C(=O)N2CSC[C@H]2C(=O)O)N1 [PIDOTIMOD] ([pGlu]-[Thz]-OH)
Compound NOT metabolized	Compound NOT metabolized	Compound NOT metabolized	Compound NOT metabolized	–	Compound NOT metabolized	Compound NOT metabolized	Compound NOT metabolized	Compound NOT metabolized	Compound NOT metabolized	Compound NOT metabolized	Compound NOT metabolized	Compound NOT metabolized	–	Compound NOT metabolized	Compound NOT metabolized	Compound NOT metabolized	Compound NOT metabolized	Compound NOT metabolized	Compound NOT metabolized	OCCOCCN1CCN(C2=Nc3ccccc3Sc3ccccc32)CC1 [QUETIAPINE]
Compound NOT metabolized	Compound NOT metabolized	–	Compound NOT metabolized	Compound NOT metabolized	Compound NOT metabolized	Compound NOT metabolized	Compound NOT metabolized	Compound NOT metabolized	Compound NOT metabolized	–	Compound NOT metabolized	Compound NOT metabolized	Compound NOT metabolized	–	–	Compound NOT metabolized	Compound NOT metabolized	–	–	CN(C)CCc1c[nH]c2ccc(Cn3cncn3)cc12.O=C(O)c1ccccc1 [RIZATRIPTAN BENZOATE]
–	Compound NOT metabolized	Compound metabolized	Compound NOT metabolized	Compound metabolized	Compound NOT metabolized	Compound NOT metabolized	–	Compound NOT metabolized	Compound NOT metabolized	Compound NOT metabolized	Compound NOT metabolized	Compound NOT metabolized	Compound NOT metabolized	Compound NOT metabolized	Compound NOT metabolized	Compound NOT metabolized	–	Compound metabolized	Compound NOT metabolized	CCCc1nn(C)c2c(=O)[nH]c(-c3cc(S(=O)(=O)N4CCN(C)CC4)ccc3OCC)nc12.O=C(O)CC(O)(CC(=O)O)C(=O)O [SILDENAFIL CITRATE]
Compound NOT metabolized	Compound NOT metabolized	Compound NOT metabolized	Compound NOT metabolized	Compound NOT metabolized	Compound NOT metabolized	Compound NOT metabolized	Compound NOT metabolized	Compound NOT metabolized	Compound NOT metabolized	Compound NOT metabolized	Compound NOT metabolized	Compound NOT metabolized	Compound NOT metabolized	Compound NOT metabolized	Compound NOT metabolized	Compound NOT metabolized	Compound NOT metabolized	Compound NOT metabolized	–	CCOc1ccccc1OCCN[C@H](C)Cc1ccc(OC)c(S(N)(=O)=O)c1.Cl [TAMSULOSIN HYDROCHLORIDE]
–	Compound NOT metabolized	Compound NOT metabolized	Compound NOT metabolized	Compound NOT metabolized	Compound NOT metabolized	Compound NOT metabolized	Compound NOT metabolized	Compound NOT metabolized	Compound NOT metabolized	Compound NOT metabolized	Compound NOT metabolized	Compound NOT metabolized	Compound NOT metabolized	Compound NOT metabolized	Compound NOT metabolized	Compound NOT metabolized	Compound NOT metabolized	Compound NOT metabolized	Compound NOT metabolized	COc1cc2nc(N3CCN(C(=O)C4CCCO4)CC3)nc(N)c2cc1OC (stereo not drawn) [TERAZOSIN]
Compound NOT metabolized	Compound NOT metabolized	Compound NOT metabolized	Compound NOT metabolized	Compound NOT metabolized	Compound NOT metabolized	Compound NOT metabolized	Compound NOT metabolized	Compound NOT metabolized	Compound NOT metabolized	Compound NOT metabolized	Compound NOT metabolized	Compound NOT metabolized	–	Compound NOT metabolized	Compound NOT metabolized	Compound NOT metabolized	Compound NOT metabolized	Compound NOT metabolized	Compound NOT metabolized	CC[C@@]1(O)C(=O)OCc2c1cc1n(c2=O)Cc2cc3c(CN(C)C)c(O)ccc3nc2-1 [TOPOTECAN]
